Test results reported in patent US6897304B2, “Cephem compounds and ESBL-detecting reagents containing the same” (Zenyaku Kogyo Kabushiki Kaisha, priority 2000, dated 2005).

Tests used:
Conditions in all cases: 50 μl of 1 U/ml enzyme, 10 minutes
[1] = biological target: T1, CEPase (CEPase Type IV) (Enterobacter cloacae, UniProt P05364); test: Paper disk colour-change test, reactivity against β-lactamases (CEPase); assay type: biochemical, E. cloacae; design: key: −: negative; +: positive; ++: highly positive
T1 construct: purchased Sigma chemical Co. CEPase Type IV; host or cells: isolated from E. cloacae
T1 sequence (P05364 21-381): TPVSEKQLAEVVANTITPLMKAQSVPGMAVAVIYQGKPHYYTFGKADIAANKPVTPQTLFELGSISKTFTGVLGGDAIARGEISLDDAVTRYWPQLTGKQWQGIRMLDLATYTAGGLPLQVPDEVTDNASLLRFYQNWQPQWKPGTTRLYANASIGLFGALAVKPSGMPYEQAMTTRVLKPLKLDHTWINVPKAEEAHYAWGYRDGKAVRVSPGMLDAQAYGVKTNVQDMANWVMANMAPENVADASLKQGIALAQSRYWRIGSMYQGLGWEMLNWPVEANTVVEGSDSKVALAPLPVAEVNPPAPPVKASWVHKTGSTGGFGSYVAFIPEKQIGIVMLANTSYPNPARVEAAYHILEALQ
Protocol: (§1) Each of the test compounds is dissolved in dimethyl sulfoxide. Paper disks with a diameter of 8 mm containing the test compounds in an amount of 5 or 25 μg per disk were prepared and dried in air. Each of these disks was added dropwise with a solution of β-lactamases (50 μl) prepared to a concentration of 1 U/ml with distilled water and allowed for 10 minutes.
(§2) PCase is an enzyme isolated from B. cereus (production of Sigma Chemical Co. :PCase Type I); and CEPase, from E. cloacae (production of Sigma chemical Co. :CEPase Type IV).

[2] = test system: PCase (PCase Type I); test: Paper disk colour-change test, reactivity against β-lactamases (PCase); assay type: biochemical, B. cereus; design: key: −: negative; +: positive; ++: highly positive
Protocol: as §1, §2

[3] = test system: ESBL; test: Paper disk colour-change test, reactivity against β-lactamases (ESBL); assay type: biochemical; design: key to Reactivity against β-lactamases: ESBL: −: negative; +: positive; ++: highly positive
Protocol: as §1

| SMILES | Reactivity against β-lactamases: CEPase ([1]; content 5 μg/disk) | Reactivity against β-lactamases: PCase ([2]; content 5 μg/disk) | Reactivity against β-lactamases: ESBL ([3]; content 5 μg/disk) | color change ([3]; content 5 μg/disk) | Reactivity against β-lactamases: CEPase ([1]; content 25 μg/disk) | Reactivity against β-lactamases: PCase ([2]; content 25 μg/disk) | Reactivity against β-lactamases: ESBL ([3]; content 25 μg/disk) | color change ([3]; content 25 μg/disk) |
| --- | --- | --- | --- | --- | --- | --- | --- | --- |
| CC(C)(ON=C(C(=O)NC1C(=O)N2C(C(=O)O)=C(C=Cc3ccc([N+](=O)[O-])cc3[N+](=O)[O-])CS[C@H]12)c1csc(N)n1)C(=O)O (stereo partly shown) [compound 1, 7-[2-(2-aminothiazol-4-yl)-2-(1-carboxy-1-methylethoxyimino)acetamido]-3-(2,4-dinitrostyryl)-3-cephem-4-carboxylic acid] | − | − | ++ | pale yellow → red |  |  |  |  |
| O=C(Cc1cccs1)NC1C(=O)N2C(C(=O)O)=C(C=Cc3ccc([N+](=O)[O-])cc3[N+](=O)[O-])CS[C@H]12 (stereo partly shown) [compound A, 3-(2,4-dinitrostyryl)-7-(2-thienylacetamido)-3-cephem-4-carboxylic acid, reference compound] | ++ | ++ | ++ | pale yellow → red |  |  |  |  |
| CC(C)(ON=C(C(=O)NC1C(=O)N2C(C(=O)O)=C(C=Cc3ccc([N+](=O)[O-])cc3)CS[C@H]12)c1csc(N)n1)C(=O)O (stereo partly shown) [compound 2, 7-[2-(2-aminothiazol-4-yl)-2-(1-carboxy-1-methylethoxyimino)acetamido]-3-(4-nitrostyryl)-3-cephem-4-carboxylic acid] | − | − | + | pale yellow → orange |  |  |  |  |
| CON=C(C(=O)NC1C(=O)N2C(C(=O)O)=C(C=Cc3ccc([N+](=O)[O-])cc3)CS[C@H]12)c1csc(N)n1 (stereo partly shown) [compound 4, 7-[2-(2-aminothiazol-4-yl)-2-methoxyiminoacetamido]-3-(4-nitrostyryl)-3-cephem-4-carboxylic acid] | − | − | ++ | pale yellow → orange |  |  |  |  |
| Nc1nc(C(=NOCC(=O)O)C(=O)NC2C(=O)N3C(C(=O)O)=C(C=Cc4ccc([N+](=O)[O-])cc4[N+](=O)[O-])CS[C@H]23)cs1 (stereo partly shown) [compound 5, 7-[2-(2-aminothiazol-4-yl)-2-carboxymethoxyiminoacetamido]-3-(2,4-dinitrostyryl)-3-cephem-4-carboxylic acid] | − | − | ++ | pale yellow → red |  |  |  |  |
| CC(C)(ON=C(C(=O)NC1C(=O)N2C(C(=O)O)=C(C=Cc3ccc(C#N)cc3)CS[C@H]12)c1csc(N)n1)C(=O)O (stereo partly shown) [compound 3, 7-[2-(2-aminothiazol-4-yl)-2-(1-carboxy-1-methylethoxyimino)acetamido]-3-(4-cyanostyryl)-3-cephem-4-carboxylic acid] |  |  |  |  | − | − | + | pale yellow → golden |
| Nc1nc(C(=NOCC(=O)O)C(=O)NC2C(=O)N3C(C(=O)O)=C(C=Cc4ccc([N+](=O)[O-])cc4)CS[C@H]23)cs1 (stereo partly shown) [compound 6, 7-[2-(2-aminothiazol-4-yl)-2-carboxymethoxyiminoacetamido]-3-(4-nitrostyryl)-3-cephem-4-carboxylic acid] | − | − | ++ | pale yellow → orange |  |  |  |  |
